In ChEMBL document CHEMBL5442219:

Tests used:
Settings in all cases: Compound concentration 10 µM
[1] = biological target: Histamine H3 receptor (Homo sapiens) (UniProt Q9Y5N1)
[2] = biological target: Sigma intracellular receptor 2 (Homo sapiens) (UniProt Q5BJF2)
[3] = biological target: 5-hydroxytryptamine receptor 2A (Homo sapiens) (UniProt P28223)
[4] = biological target: D(2) dopamine receptor (Homo sapiens) (UniProt P14416)
[5] = biological target: 5-hydroxytryptamine receptor 1D (Homo sapiens) (UniProt P28221)
[6] = biological target: Sigma non-opioid intracellular receptor 1 (Homo sapiens) (UniProt Q99720)
[7] = biological target: Histamine H1 receptor (Homo sapiens) (UniProt P35367)
[8] = biological target: 5-hydroxytryptamine receptor 1B (Homo sapiens) (UniProt P28222)
[9] = biological target: Delta-type opioid receptor (Homo sapiens) (UniProt P41143)
[10] = biological target: 5-hydroxytryptamine receptor 5A (Homo sapiens) (UniProt P47898)
[11] = biological target: T1, Muscarinic acetylcholine receptor M1 (Homo sapiens) (UniProt P11229)
T1 sequence (whole entry): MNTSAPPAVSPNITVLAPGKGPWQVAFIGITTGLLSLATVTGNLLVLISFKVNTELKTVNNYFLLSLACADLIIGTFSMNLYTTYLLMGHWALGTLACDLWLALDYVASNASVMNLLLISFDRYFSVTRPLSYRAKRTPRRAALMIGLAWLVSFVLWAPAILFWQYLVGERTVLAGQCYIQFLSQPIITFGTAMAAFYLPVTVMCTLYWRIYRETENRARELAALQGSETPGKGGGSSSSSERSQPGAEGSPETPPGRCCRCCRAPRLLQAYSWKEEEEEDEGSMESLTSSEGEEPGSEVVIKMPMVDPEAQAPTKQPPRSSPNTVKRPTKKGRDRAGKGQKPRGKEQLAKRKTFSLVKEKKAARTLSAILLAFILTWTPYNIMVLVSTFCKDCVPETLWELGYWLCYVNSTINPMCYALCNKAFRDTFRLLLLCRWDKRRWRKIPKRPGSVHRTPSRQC

[12] = biological target: D(1B) dopamine receptor (Homo sapiens) (UniProt P21918)
[13] = biological target: D(1A) dopamine receptor (Homo sapiens) (UniProt P21728)
[14] = biological target: 5-hydroxytryptamine receptor 6 (Homo sapiens) (UniProt P50406)
[15] = biological target: 5-hydroxytryptamine receptor 1E (Homo sapiens) (UniProt P28566)
[16] = biological target: T2, Alpha-2A adrenergic receptor (Homo sapiens) (UniProt P08913)
T2 sequence (whole entry): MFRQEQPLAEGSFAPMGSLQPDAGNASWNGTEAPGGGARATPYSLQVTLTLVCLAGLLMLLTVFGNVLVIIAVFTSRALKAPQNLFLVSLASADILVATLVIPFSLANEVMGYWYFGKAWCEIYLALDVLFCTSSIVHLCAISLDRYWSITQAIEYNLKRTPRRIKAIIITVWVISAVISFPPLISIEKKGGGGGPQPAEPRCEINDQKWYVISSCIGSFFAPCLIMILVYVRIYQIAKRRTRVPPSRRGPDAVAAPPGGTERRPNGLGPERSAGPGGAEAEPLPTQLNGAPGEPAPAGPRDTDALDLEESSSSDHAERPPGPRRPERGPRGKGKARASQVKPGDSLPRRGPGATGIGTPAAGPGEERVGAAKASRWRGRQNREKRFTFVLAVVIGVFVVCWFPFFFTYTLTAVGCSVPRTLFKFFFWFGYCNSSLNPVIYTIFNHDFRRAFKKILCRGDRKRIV

[17] = biological target: Muscarinic acetylcholine receptor M3 (Homo sapiens) (UniProt P20309)
[18] = biological target: Histamine H4 receptor (Homo sapiens) (UniProt Q9H3N8)
[19] = biological target: Beta-2 adrenergic receptor (Homo sapiens) (UniProt P07550)
[20] = biological target: 5-hydroxytryptamine receptor 7 (Homo sapiens) (UniProt P34969)
[21] = biological target: T3, Alpha-1A adrenergic receptor (Homo sapiens) (UniProt P35348)
T3 sequence (whole entry): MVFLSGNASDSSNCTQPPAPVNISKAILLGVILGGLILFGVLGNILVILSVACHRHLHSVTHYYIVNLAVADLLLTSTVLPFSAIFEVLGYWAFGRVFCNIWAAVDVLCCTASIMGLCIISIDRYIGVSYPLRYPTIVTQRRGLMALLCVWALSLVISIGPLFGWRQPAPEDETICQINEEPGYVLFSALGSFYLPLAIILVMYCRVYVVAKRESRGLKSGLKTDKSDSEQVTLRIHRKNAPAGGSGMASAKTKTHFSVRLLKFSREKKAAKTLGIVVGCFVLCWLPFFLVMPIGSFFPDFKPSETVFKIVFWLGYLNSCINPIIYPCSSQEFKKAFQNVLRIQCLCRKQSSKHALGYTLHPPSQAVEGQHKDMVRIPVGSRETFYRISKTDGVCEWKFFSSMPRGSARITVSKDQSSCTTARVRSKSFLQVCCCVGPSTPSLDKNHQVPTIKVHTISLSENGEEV

Sequence of Muscarinic acetylcholine receptor M3 (Homo sapiens) (P20309 whole entry, looked up): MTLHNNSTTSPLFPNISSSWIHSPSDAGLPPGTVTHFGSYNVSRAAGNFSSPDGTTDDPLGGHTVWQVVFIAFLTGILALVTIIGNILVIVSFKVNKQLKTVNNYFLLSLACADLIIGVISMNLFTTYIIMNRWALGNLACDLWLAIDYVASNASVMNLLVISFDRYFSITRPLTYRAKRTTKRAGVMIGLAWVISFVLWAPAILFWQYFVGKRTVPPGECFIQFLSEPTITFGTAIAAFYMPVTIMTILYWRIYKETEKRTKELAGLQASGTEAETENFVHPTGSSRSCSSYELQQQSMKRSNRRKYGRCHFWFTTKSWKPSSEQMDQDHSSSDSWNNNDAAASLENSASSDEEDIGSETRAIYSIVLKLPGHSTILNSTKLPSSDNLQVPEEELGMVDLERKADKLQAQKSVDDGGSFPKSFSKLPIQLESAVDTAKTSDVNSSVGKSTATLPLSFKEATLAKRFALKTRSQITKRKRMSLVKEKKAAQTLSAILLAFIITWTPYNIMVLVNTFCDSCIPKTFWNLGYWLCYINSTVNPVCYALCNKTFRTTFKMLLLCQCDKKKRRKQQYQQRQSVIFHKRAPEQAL
Sequence of 5-hydroxytryptamine receptor 2A (Homo sapiens) (P28223 whole entry): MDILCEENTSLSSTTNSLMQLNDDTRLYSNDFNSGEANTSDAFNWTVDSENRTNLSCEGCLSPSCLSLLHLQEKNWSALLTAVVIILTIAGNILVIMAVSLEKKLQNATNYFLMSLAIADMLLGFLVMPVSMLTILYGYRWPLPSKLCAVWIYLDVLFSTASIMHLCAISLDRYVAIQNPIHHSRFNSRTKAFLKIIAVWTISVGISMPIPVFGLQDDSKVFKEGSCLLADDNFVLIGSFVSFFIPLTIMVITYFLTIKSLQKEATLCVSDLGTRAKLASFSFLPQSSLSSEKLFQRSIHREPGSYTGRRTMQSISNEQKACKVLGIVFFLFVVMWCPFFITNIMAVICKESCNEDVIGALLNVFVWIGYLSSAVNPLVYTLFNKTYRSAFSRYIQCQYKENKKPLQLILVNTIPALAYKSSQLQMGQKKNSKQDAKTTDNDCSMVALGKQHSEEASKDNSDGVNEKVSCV
Sequence of 5-hydroxytryptamine receptor 7 (Homo sapiens) (P34969 whole entry): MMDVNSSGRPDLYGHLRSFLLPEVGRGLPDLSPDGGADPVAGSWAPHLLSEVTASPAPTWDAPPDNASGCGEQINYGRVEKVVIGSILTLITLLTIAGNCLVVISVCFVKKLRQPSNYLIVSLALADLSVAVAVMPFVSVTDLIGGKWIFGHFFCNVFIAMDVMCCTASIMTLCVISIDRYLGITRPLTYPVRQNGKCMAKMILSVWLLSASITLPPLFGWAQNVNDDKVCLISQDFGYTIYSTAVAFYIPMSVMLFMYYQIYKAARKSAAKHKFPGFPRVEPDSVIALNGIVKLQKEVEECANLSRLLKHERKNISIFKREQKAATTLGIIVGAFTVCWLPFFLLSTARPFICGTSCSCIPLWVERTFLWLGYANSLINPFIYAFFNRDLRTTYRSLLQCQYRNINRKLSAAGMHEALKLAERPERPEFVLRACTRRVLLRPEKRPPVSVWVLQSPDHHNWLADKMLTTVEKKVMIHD
Sequence of 5-hydroxytryptamine receptor 1E (Homo sapiens) (P28566 whole entry): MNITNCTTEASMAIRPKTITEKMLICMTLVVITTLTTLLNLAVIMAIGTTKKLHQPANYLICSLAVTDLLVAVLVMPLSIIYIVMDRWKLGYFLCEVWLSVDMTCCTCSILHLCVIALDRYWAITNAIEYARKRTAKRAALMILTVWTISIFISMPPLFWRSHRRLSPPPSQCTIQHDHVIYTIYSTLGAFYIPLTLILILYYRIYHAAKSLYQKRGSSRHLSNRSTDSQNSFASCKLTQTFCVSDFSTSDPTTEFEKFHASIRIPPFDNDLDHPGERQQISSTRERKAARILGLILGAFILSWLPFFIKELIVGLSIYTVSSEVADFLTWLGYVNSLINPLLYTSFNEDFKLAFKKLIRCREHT
Sequence of Histamine H4 receptor (Homo sapiens) (Q9H3N8 whole entry): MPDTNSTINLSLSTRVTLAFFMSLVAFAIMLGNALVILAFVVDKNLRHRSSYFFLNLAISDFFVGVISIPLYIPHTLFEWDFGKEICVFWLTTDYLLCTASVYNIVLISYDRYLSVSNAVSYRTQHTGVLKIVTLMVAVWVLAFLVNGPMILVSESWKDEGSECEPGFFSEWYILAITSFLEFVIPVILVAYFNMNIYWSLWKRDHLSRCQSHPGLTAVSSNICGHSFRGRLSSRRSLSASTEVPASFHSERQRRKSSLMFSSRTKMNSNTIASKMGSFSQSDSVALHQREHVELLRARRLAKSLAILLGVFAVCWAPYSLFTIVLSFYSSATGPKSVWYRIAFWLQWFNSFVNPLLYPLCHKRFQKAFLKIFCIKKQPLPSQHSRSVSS
Sequence of 5-hydroxytryptamine receptor 5A (Homo sapiens) (P47898 whole entry): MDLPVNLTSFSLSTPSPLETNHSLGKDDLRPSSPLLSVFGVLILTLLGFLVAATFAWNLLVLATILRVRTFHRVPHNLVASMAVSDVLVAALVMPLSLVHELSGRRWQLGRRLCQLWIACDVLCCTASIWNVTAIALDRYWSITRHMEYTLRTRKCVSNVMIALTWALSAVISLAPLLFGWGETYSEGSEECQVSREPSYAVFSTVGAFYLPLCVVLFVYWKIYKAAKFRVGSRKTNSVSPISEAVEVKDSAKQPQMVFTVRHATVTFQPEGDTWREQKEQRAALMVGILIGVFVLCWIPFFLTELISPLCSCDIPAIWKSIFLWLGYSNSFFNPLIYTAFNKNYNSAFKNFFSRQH
Sequence of Sigma intracellular receptor 2 (Homo sapiens) (Q5BJF2 whole entry): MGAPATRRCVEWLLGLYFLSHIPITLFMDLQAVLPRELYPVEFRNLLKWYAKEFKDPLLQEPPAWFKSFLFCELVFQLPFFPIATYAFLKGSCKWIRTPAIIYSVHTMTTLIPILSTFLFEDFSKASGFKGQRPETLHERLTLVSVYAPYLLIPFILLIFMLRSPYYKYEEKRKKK
Sequence of Histamine H3 receptor (Homo sapiens) (Q9Y5N1 whole entry): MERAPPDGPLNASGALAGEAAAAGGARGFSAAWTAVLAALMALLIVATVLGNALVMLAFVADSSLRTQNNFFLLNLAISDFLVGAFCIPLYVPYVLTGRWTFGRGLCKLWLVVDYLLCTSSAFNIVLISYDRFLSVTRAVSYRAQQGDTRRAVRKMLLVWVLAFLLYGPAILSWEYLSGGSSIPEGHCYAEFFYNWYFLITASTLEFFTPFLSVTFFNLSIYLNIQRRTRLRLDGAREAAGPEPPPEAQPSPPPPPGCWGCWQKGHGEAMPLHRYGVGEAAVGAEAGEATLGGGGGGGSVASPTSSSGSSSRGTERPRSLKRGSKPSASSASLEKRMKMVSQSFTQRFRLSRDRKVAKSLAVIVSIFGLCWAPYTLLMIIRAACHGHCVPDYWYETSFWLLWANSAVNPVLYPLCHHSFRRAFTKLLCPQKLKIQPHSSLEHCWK
Sequence of D(1A) dopamine receptor (Homo sapiens) (P21728 whole entry): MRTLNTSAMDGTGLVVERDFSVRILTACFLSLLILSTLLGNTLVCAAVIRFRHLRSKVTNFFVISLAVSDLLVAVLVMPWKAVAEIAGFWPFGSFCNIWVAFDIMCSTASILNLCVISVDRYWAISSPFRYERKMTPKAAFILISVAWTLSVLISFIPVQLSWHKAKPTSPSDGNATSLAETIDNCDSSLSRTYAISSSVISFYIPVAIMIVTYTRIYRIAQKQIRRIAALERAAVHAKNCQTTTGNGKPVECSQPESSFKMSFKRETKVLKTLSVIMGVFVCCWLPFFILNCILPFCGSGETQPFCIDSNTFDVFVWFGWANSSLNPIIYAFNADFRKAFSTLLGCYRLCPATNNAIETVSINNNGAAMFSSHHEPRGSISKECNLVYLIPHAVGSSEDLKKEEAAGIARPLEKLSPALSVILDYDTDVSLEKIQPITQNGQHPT
Sequence of Histamine H1 receptor (Homo sapiens) (P35367 whole entry): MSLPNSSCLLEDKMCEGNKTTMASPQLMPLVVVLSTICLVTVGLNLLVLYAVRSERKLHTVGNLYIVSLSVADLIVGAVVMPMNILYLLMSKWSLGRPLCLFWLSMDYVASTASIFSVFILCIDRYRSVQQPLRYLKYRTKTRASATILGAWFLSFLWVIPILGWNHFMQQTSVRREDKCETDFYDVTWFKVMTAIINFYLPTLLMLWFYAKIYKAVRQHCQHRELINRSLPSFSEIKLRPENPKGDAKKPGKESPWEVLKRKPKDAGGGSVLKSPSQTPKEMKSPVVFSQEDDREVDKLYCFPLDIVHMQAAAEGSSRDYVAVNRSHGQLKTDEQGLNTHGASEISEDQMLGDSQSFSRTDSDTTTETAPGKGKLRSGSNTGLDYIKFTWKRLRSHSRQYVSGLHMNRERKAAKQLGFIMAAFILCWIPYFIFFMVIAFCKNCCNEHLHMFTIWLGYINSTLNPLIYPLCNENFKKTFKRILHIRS
Sequence of 5-hydroxytryptamine receptor 1B (Homo sapiens) (P28222 whole entry): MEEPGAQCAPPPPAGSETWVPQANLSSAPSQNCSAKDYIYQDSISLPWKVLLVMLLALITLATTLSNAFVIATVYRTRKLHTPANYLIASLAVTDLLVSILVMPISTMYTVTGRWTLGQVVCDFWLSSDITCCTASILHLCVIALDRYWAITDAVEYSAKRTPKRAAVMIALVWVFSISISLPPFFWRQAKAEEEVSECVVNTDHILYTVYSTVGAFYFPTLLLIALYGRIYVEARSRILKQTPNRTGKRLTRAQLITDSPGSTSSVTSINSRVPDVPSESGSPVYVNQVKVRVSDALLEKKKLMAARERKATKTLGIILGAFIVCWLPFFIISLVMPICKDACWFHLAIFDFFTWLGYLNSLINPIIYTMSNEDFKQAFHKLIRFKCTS
Sequence of Sigma non-opioid intracellular receptor 1 (Homo sapiens) (Q99720 whole entry): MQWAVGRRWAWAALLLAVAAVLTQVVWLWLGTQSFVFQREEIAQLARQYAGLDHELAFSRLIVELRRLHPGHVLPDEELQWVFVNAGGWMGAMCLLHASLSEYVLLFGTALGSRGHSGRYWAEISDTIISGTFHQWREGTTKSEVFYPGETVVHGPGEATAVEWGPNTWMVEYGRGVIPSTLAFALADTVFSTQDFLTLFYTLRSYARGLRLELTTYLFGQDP

O=C(O)c1cc(-c2ccc(C3CCNCC3)cc2)c2ccc(-c3ccc(C(F)(F)F)cc3)cc2c1
inhibition [1]: 10.6%
inhibition [2]: 81.1%
inhibition [3]: 28.4%
inhibition [4]: 11.9%
inhibition [5]: 73.1%
inhibition [6]: 31.5%
inhibition [7]: 42.8%
inhibition [8]: 73.7%
inhibition [9]: 14%
inhibition [10]: 69%
inhibition [11]: 23.8%
inhibition [12]: 81%
inhibition [13]: 27%
inhibition [14]: 11.3%
inhibition [15]: 2.57%
inhibition [16]: 42.2%
inhibition [17]: 1.23%
inhibition [18]: -8.87%
inhibition [19]: -2.41%
inhibition [20]: 51.5%

Cc1c(P(=S)(c2ccccc2)c2ccccc2)n2ccccc2[n+]1C/C=C/c1ccccc1
inhibition [1]: 15%
inhibition [2]: 88%
inhibition [3]: 55.7%
inhibition [4]: 49%
inhibition [5]: 40.5%
inhibition [6]: 67.2%
inhibition [7]: 67.1%
inhibition [8]: 45.4%
inhibition [9]: 36.7%
inhibition [10]: 42.1%
inhibition [11]: 88.2%
inhibition [21]: 28.7%
inhibition [12]: 24.6%
inhibition [13]: 16.3%
inhibition [14]: 43.6%
inhibition [15]: 1.99%
inhibition [16]: 58.1%
inhibition [17]: 71%
inhibition [18]: 31%
inhibition [19]: 65.4%
inhibition [20]: 34.3%

CN(C)C(=O)N[C@H]1CC[C@H](CCN2CCN(c3cccc(Cl)c3Cl)CC2)CC1
inhibition [1]: 4.23%
inhibition [2]: 88.3%
inhibition [3]: 110%
inhibition [4]: 100%
inhibition [5]: 101%
inhibition [7]: 98.7%
inhibition [8]: 93.7%
inhibition [9]: 11.3%
inhibition [10]: 69.8%
inhibition [11]: 11.8%
inhibition [21]: 89.1%
inhibition [12]: -0.02%
inhibition [13]: 36.3%
inhibition [14]: 69.7%
inhibition [15]: 48%
inhibition [16]: 95%
inhibition [17]: 27.8%
inhibition [18]: 2.57%
inhibition [19]: 31.6%
inhibition [20]: 104%

CN1CCC(C(=O)c2cccc(NC(=O)c3c(F)cc(F)cc3F)n2)CC1
inhibition [1]: 3.79%
inhibition [2]: 91%
inhibition [3]: 1.42%
inhibition [4]: 26.2%
inhibition [5]: 80.7%
inhibition [6]: 81.6%
inhibition [7]: 16.4%
inhibition [8]: 43.4%
inhibition [9]: 1.97%
inhibition [10]: 27.2%
inhibition [11]: 43.1%
inhibition [21]: 17.6%
inhibition [12]: 73.7%
inhibition [13]: 15.1%
inhibition [14]: 11.4%
inhibition [15]: 102%
inhibition [16]: 19.9%
inhibition [17]: 43.5%
inhibition [18]: -0.15%
inhibition [19]: -3.08%
inhibition [20]: 52.8%

NCCc1cn(S(=O)(=O)c2c(Cl)nc3sccn23)c2ccccc12
inhibition [1]: 55.7%
inhibition [2]: 82.9%
inhibition [3]: 94.2%
inhibition [4]: 42.1%
inhibition [5]: 81.9%
inhibition [6]: 78.7%
inhibition [7]: 52.1%
inhibition [8]: 82.5%
inhibition [9]: 6.57%
inhibition [10]: 28.4%
inhibition [11]: 38.9%
inhibition [21]: 57.5%
inhibition [12]: 38.9%
inhibition [13]: 41.2%
inhibition [14]: 99.3%
inhibition [15]: 23.3%
inhibition [16]: 93.4%
inhibition [17]: 25.2%
inhibition [18]: 11.2%
inhibition [19]: 39.8%
inhibition [20]: 66.9%

Cc1cc(NC(=O)NCCN2CCC(O)(Cc3ccccc3)CC2)c2ccccc2n1
inhibition [1]: 31%
inhibition [2]: 86%
inhibition [3]: 52.7%
inhibition [4]: 65.3%
inhibition [5]: 91.7%
inhibition [6]: 56.9%
inhibition [7]: 5.97%
inhibition [8]: 11.5%
inhibition [9]: 15.6%
inhibition [10]: 5.79%
inhibition [11]: 13.7%
inhibition [21]: 23.9%
inhibition [12]: 41.9%
inhibition [13]: 10.7%
inhibition [14]: 8.02%
inhibition [15]: 5.03%
inhibition [16]: 82.4%
inhibition [17]: 24.4%
inhibition [18]: 3.45%
inhibition [19]: 28.1%
inhibition [20]: 32%

O=c1ccc2ccc(OCCCCN3CCN(c4cccc5sccc45)CC3)cc2[nH]1
inhibition [1]: 54.5%
inhibition [2]: 95.6%
inhibition [3]: 97.1%
inhibition [4]: 104%
inhibition [5]: 104%
inhibition [7]: 100%
inhibition [8]: 99%
inhibition [9]: -1.82%
inhibition [10]: 93.1%
inhibition [11]: 30.3%
inhibition [21]: 100%
inhibition [12]: 88.1%
inhibition [13]: 82.6%
inhibition [14]: 101%
inhibition [15]: 92.3%
inhibition [16]: 104%
inhibition [17]: 21.4%
inhibition [18]: 8%
inhibition [19]: 78.8%
inhibition [20]: 101%

c1nc(CC2CCNCC2)c[nH]1
inhibition [1]: 95.9%
inhibition [2]: 27.7%
inhibition [3]: 20.8%
inhibition [4]: 27.8%
inhibition [5]: 9.58%
inhibition [6]: 38.7%
inhibition [7]: 26.1%
inhibition [8]: 17.7%
inhibition [9]: 3.71%
inhibition [10]: -4.49%
inhibition [11]: 6.59%
inhibition [21]: -4.11%
inhibition [12]: 5.35%
inhibition [13]: 24.2%
inhibition [14]: 18.8%
inhibition [15]: 9.31%
inhibition [16]: 14.5%
inhibition [17]: 6.47%
inhibition [18]: 105%
inhibition [19]: 5.09%
inhibition [20]: 11.9%
